In patent publication US11267802B2 (BEBETTER MED INC., priority 2015, dated 2022):

Assays:
[1] = system: H358; assay: Inhibition assay on tumor cell proliferation (CellTiter-Glo), H358; type: cell-based, Human; settings: Homo sapiens, NCI-H358; H358 (wild-type EGFR), 72 hours, 10% bovine serum
Summary of the method: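 Viability from ATP content by CellTiter-Glo luminescence; inhibition normalised to DMSO (max) and medium-only (min) wells, IC50 by sigmoidal dose-response fitting. LOVO and H358 carry wild-type EGFR; HCC827 has exon 19 deletion.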

[2] = Pharmacokinetics in rats after oral administration; type: in vivo, SD rats
Experimental: Male SD rats weighing 250-300 g, or male beagles weighing 9-10 kg, were fasted overnight before the experiment. The object compounds were dissolved in 30% sulfobutylated beta-cyclodextrin (SBE-β-CD), and orally administrated to the rats at a dose of 20 mg/kg or to the beagles at a dose of 5 mg/kg. Blood samples were taken at 15 minutes, 30 minutes, 1 hour, 2 hours, 3 hours, 4 hours, 6 hours, 8 hours and 24 hours after administration. 0.3 ml of blood was collected at every time point, placed in a centrifuge tube containing K2-EDTA (ethylenediamine tetraacetic acid dipotassium) and centrifuged (2,000 g, 10 minutes, 4° C.) to collect plasma, which was then stored in an ultra cold storage freezer at −80° C. 50 μL of plasma sample was mixed with 5 μL of internal standard (IS), and then extracted with ethyl acetate. After vacuum drying, the residue was re-dissolved in acetonitrile. The sample was filtered and injected into LC-MS/MS for analysis.

[3] = system: EGFR phosphorylation in H1975 xenograft tumor; assay: Pharmacodynamic experiments of tumor model (EGFR phosphorylation, Western blot); type: in vivo, Balb/C nude mice; settings: oral 30 mg/kg
Experimental: Balb/C nude mice were purchased from Beijing Vital River Laboratory Animal Technology Co., Ltd., and housed in SPF animal room. The human non-small-cell lung cancer cell line H1975 in a culture dish was collected by trypsin-EDTA (0.25% trypsin, 1 mM EDTA), and then washed with a serum-free PBS solution. Lastly, the cells were implanted after diluted in a serum-free medium. Only the single cell suspension with a survival rate over 90% (Trypan blue rejection) can be used for injection. 5 million cells suspended in a 0.1 ml serum-free culture were injected into the front right flanking subcutaneous region of each mouse by using a 1 ml syringe and a 25G syringe needle, and the blood vessel was carefully avoided. The tumor size was measured in about one week after implantation. A caliper rule was used to measure the tumor size. The tumor volume was calculated by the following formula: tumor volume=(length×width^2)/2.
When the H1975 xenograft tumor reached a volume of about […], the animals were divided into 4 oral administration groups, that is, excipient control group (0 hour) and groups of 2 hours, 4 hours, and 8 hours after administration (3 to 4 animals at each time point). […]
20 mg of tumor tissue was homogenized in 300 μl of protein extract (RIPA, CST, #9806). […] The protein concentration was determined by Bradford method (Beyotime, # P0006). […]

[4] = male, SD, rat, 20 mg/kg, plasma

IC50 [1]: 0.1 to 1 µM | absorption / blood exposure after oral administration (in words) [2]: well absorbed, with high blood exposure | AUC(0-inf) [2, 4]: 1.35 µg·h/mL | Cmax [2, 4]: 0.292 µg/mL | Tmax [2, 4]: 1 h | half-life [2, 4]: 3 h | AUC(0-t) ([2]; male, SD, rat, 20 mg/kg, plasma, read-out: AUC0-24): 1.34 µg·h/mL | melting point: 225 to 227 °C
SMILES: C=CC(=O)Nc1cc(Nc2nccc(-n3c(=O)n(C(C)C)c4cc(F)ccc43)n2)c(OC)cc1N(C)CCN(C)C [Compound 91, N-(2-((2-(dimethylamino)ethyl)(methyl)amino)-5-(4-(5-fluoro-3-isopropyl-2-oxo-2,3-dihydro-1H-benzo[d]imidazol-1-yl)pyrimidin-2-ylamino)-4-methoxyphenyl)acrylamide]
inhibition of EGFR phosphorylation in H1975 tumor (in words) ([3]; at 2 hours and 4 hours): strong | inhibition of EGFR phosphorylation in H1975 tumor (in words) ([3]; at 8 hours): obvious inhibition effect
